Data set [1] addresses T1, FabI (Escherichia coli, UniProt P0AEK4).
T1 sequence (P0AEK4 1-262): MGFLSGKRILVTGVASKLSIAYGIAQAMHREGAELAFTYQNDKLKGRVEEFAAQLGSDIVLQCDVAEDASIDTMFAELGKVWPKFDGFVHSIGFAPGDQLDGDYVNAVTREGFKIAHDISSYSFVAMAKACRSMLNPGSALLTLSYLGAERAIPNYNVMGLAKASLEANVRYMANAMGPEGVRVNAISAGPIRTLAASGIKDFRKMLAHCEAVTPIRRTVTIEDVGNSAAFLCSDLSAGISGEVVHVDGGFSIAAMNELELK
Kind of data set: Inhibition of FabI crotonyl-CoA reduction activity by CoA thioesters. In kind it is biochemical, E. coli. To be noted: for inhibitory effect on FabI activity: CoA thioester at 20 or 200 μM. The source says:
FIG. 3. Characterization of crotonyl-CoA reduction to butyryl-CoA by FabI. FIG. 3A. Mass spectrum analysis of FabI reduction of crotonyl-CoA to butyryl-CoA. (i) Controls of crotonyl-CoA (836.3 m/z—gray) and butyryl-CoA (838.3 m/z—black). (ii) Reaction mixture without FabI. (iii) Reaction mixture with FabI. FIG. 3B. pH activity profile of FabI with crotonyl-CoA and NADH relative to pH 7.5 (1.0). FIG. 3C. Inhibition profile of crotonyl-CoA reduction activity for FabI with the indicated CoA thioesters at either 20 or 200 μM relative to activity in absence of inhibitor (100%).
(§1) For measurement of enzymatic activities from fermentation samples, cells were disrupted as previously reported (Dellomonaco, Clomburg, Miller, & Gonzalez, 2011). The HIS Tagged FabI protein was expressed from pCA24N-FabI from the ASKA collection (Kitagawa et al., 2005) in BL21(DE3) cells (NEW ENGLAND BIOLABS™) induced at OD600≈0.4 with 0.1 mM IPTG and shaken O/N at Room Temperature. FabI protein was harvested and purified as previously reported using Talon Metal Affinity Resin (CLONTECH LABORATORIES™) (Clomburg et al., 2012).
(§2) Thiolase activity (Wiesenborn, Rudolph, & Papoutsakis, 1988) and β-hydroxybutyryl-CoA dehydrogenase activity (Bond-Watts, Bellerose, & Chang, 2011a) were monitored accordingly as previously described (Clomburg et al., 2012). Trans-enoyl-CoA reductase activity for egTER, FabI, bsFabL, efFabK and vcFabV were monitored by loss of NADH (Bond-Watts et al., 2011a; Clomburg et al., 2012). Acyl-CoA dehydrogenase activity was monitored by measuring the reduction of Methyl-Thiazolyl Blue (MTT) coupled to the oxidation of butyryl-CoA (O'Brien & Frerman, 1977) in cellular extracts disrupted as above with the addition of 5 μM flavin adenine dinucleotide (FAD).
To understand the potential of utilizing FabI for BOX-R, we examined the effect of key CoA thioester intermediates of the BOX-R as well as a broad range of acyl-CoAs on FabI activity […].

Data set [2] concerns the target T1, FabI. To be noted: substrate of FabI, Bergler 1994; cited from earlier work.
The target in data set [3] is T1, FabI.
Substrate in data set [4]: C/C=C/C(=O)SCCNC(=O)CCNC(=O)[C@H](O)C(C)(C)COP(=O)(O)OP(=O)(O)OC[C@H]1O[C@@H](n2cnc3c(N)ncnc32)[C@H](O)[C@@H]1OP(=O)(O)O
Kind of data set: Kinetic parameters of purified N-terminal His-tagged FabI with crotonyl-CoA and NADH. Format: biochemical, E. coli. To be noted: other: substrate of purified FabI, NADH. Here is the method: as §1, §2
N-terminal His-tagged FabI was purified from an ASKA collection vector (Kitagawa et al., 2005) expressed in the strain BL21(DE3). […] This change in kcat increases the expected rate of crotonyl-CoA reduction by FabI to a value between 1.02×10^−7M s^−1 and 7.86×10^−11 M s^−1, which is in agreement with the rate observed in our cultures. To verify that FabI is utilizing NADH to convert crotonyl-CoA to butyryl-CoA, the reaction was monitored via HPLC-MS, which confirmed that FabI converts crotonyl-CoA almost completely to butyryl-CoA (FIG. 3a).

Like-named read-outs stand apart in the source and are kept apart here.

`CC(O)CC(=O)SCCNC(=O)CCNC(=O)[C@H](O)C(C)(C)COP(=O)(O)OP(=O)(O)OC[C@H]1O[C@@H](n2cnc3c(N)ncnc32)[C@H](O)[C@@H]1OP(=O)(O)O` (stereo partly shown) [3-hydroxy-butyryl-CoA]: the “inhibitory effect on FabI activity” value in data set [1] is listed as “minimal inhibitory effects”. Same read-out and setting: in the case of `CC(=O)CC(=O)SCCNC(=O)CCNC(=O)[C@H](O)C(C)(C)COP(=O)(O)OP(=O)(O)OC[C@H]1O[C@@H](n2cnc3c(N)ncnc32)[C@H](O)[C@@H]1OP(=O)(O)O` [acetoacetyl-CoA] it was “minimal inhibitory effects”. In the case of `C/C=C/C(=O)SCCNC(=O)CCNC(=O)[C@H](O)C(C)(C)COP(=O)(O)OP(=O)(O)OC[C@H]1O[C@@H](n2cnc3c(N)ncnc32)[C@H](O)[C@@H]1OP(=O)(O)O` [crotonyl-CoA], the reported kcat in data set [2] was 0.23 s⁻¹.

In the case of `CCCCCCCCCC(=O)SCCNC(=O)CCNC(=O)C(O)C(C)(C)COP(=O)(O)OP(=O)(O)OC[C@H]1O[C@@H](n2cnc3c(N)ncnc32)[C@H](O)[C@@H]1OP(=O)(O)O` (stereo partly shown) [decaonyl-CoA], in data set [3] (literature, Helmut Bergler 1996; read-out: Ki towards FabI; cited from earlier work), the Ki (usually the equilibrium dissociation constant of an inhibitor or competing ligand from its target) is about 900 µM. Regarding `CCCCCCCCCCCCCC(=O)SCCNC(=O)CCNC(=O)[C@H](O)C(C)(C)COP(=O)(O)OP(=O)(O)OC[C@H]1O[C@@H](n2cnc3c(N)ncnc32)[C@H](O)[C@@H]1OP(=O)(O)O` [myristoyl-CoA], the “percent inhibition of FabI crotonyl-CoA reduction activity” value in data set [1] (CoA thioester at 200 μM) is recorded as “highest percent inhibition”. On to `CCCCCCCCCCCCCCCC(=O)SCCNC(=O)CCNC(=O)[C@H](O)C(C)(C)COP(=O)(O)OP(=O)(O)OC[C@H]1O[C@@H](n2cnc3c(N)ncnc32)[C@H](O)[C@@H]1OP(=O)(O)O` [palmitoyl-CoA], for which, in data set [3] (read-out: Ki towards FabI; literature, Helmut Bergler 1996; cited from earlier work), the Ki is 20 µM. Further, the inhibition (as a rule, how much of the control response was suppressed) at 20 µM in data set [1] (read-out: inhibition of FabI crotonyl-CoA reduction activity) is about 50%.

B1: FabI (Escherichia coli K-12) (protein)
chain: MGFLSGKRILVTGVASKLSIAYGIAQAMHREGAELAFTYQNDKLKGRVEEFAAQLGSDIVLQCDVAEDASIDTMFAELGKVWPKFDGFVHSIGFAPGDQLDGDYVNAVTREGFKIAHDISSYSFVAMAKACRSMLNPGSALLTLSYLGAERAIPNYNVMGLAKASLEANVRYMANAMGPEGVRVNAISAGPIRTLAASGIKDFRKMLAHCEAVTPIRRTVTIEDVGNSAAFLCSDLSAGISGEVVHVDGGFSIAAMNELELK
Consider B1, for which, in data set [4], the Km (usually the concentration of substrate that gives half-maximal velocity) was found to be 4.6 ± 0.6 mM; the kcat – broadly, the maximal rate divided by the concentration of active sites – was found to be 5.3 ± 0.6 s⁻¹; the kcat/Km (usually the second-order rate constant that governs catalysis at low substrate concentration) was 1150 M⁻¹ s⁻¹.

(Values after patent publication US10450593B2, “Type II fatty acid synthesis enzymes in reverse β-oxidation” (William Marsh Rice University, priority 2014, dated 2019).)
